Experimental data taken from patent US4379784A, “Pyrimidinyl ureido penicillins” (Dr. Karl Thomae Gesellschaft mit beschrankter Haftung, priority 1980, dated 1983).
In brackets after ≈: the same amount, converted by molar mass.

Key:
[1] = tested on: Staphylococcus aureus SG 511; test: series dilution test in the microtiter system (MIC), S. aureus SG 511; type: cell-based; conditions: SG511, 18 to 20 hours at 37° C., liquid medium, read-out: minimum inhibitory concentrations (MIC), S.aureus SG 511
Method: (§1) The method of the series dilution test in the microtiter system was used. The substances were tested for bacteriostasis in a liquid medium. The bacteriostatic activity was tested at the following concentrations:
(§2) A nutrient medium having the following composition was used: 10 gm of peptone, 8 gm of meat extract oxoid, 3 gm of sodium chloride, and 2 gm of sec. sodium phosphate were made up to […] with distilled water (pH 7.2 to 7.4). The age of the primary cultures was about 20 hours.
(§3) The bacterial suspension was adjusted using the photometer (according to "Eppendorf", test tube diameter 14 mm, filter 546 nm) by reference to the turbidity of a barium sulfate comparison suspension which was produced by a barium sulfate suspension formed by the addition of 3.0 ml of 1% barium chloride solution to 97 ml of 1% sulfuric acid. After adjustment, Streptococcus aronson was diluted in the ratio 1:15 and the other test pathogens were diluted in the ratio 1:1500 with a common salt solution.
(§4) 16 mg of the test substance were weighed in 10 ml measuring flasks and solvent was added up to the mark. Further dilutions in the series were made with distilled water or the solvent in question.
(§5) The depressions in the microtiter plates were filled with 0.2 ml of nutrient medium, 0.01 ml of the corresponding diluted substance and a drop of bacterial suspension (0.01 ml) and incubated for 18 to 20 hours at 37° C. A solvent check was carried out continuously at the same time.
(§6) The reading was taken macroscopically, and the respective limiting concentration (=the lowest concentration still having bacteriostatic activity) was determined.
(§7) The following were used as test organisms:
(§8) Staphylococcus aureus SG 511, Escherichia coli ATCC 11 775, Pseudomonas aeruginosa Hamburgensis and Pseudomonas aeruginosa BC 19, Serratia Marcescens ATCC 13 880, Klebsiella pneumoniae ATCC 10 031 and BC 6, Proteus mirabilis Hamburgensis, Proteus rettgeri BC 7, Enterobacter cloacae ATCC 13 047.
(§9) Table 1 below lists the minimum inhibitory concentrations (MIC) in μgm/ml determined for typical representatives of the compounds of the present invention. These are the sodium salts of compounds of the formula I where A=p-hydroxyphenyl and R has the indicated meanings.

[2] = tested on: Escherichia coli ATCC 11 775; test: series dilution test in the microtiter system (MIC), E. coli ATCC 11775; type: cell-based; conditions: 18 to 20 hours at 37° C., liquid medium, read-out: minimum inhibitory concentrations (MIC), E.Coli ATCC 11775
Method: as §1, §2, §3, §4, §5, §6, §7, §8, §9

[3] = tested on: Pseudomonas aeruginosa Hamburgensis; test: series dilution test in the microtiter system (MIC), Ps. aeruginosa Hamburgensis; type: cell-based; conditions: 18 to 20 hours at 37° C., liquid medium, read-out: minimum inhibitory concentrations (MIC), Pseud. aerug. Hbg.
Method: as §1, §2, §3, §4, §5, §6, §7, §8, §9

[4] = tested on: Pseudomonas aeruginosa BC 19; test: series dilution test in the microtiter system (MIC), Ps. aeruginosa BC 19; type: cell-based; conditions: BC19, 18 to 20 hours at 37° C., liquid medium, read-out: minimum inhibitory concentrations (MIC), Pseud. aerug. BC 19
Method: as §1, §2, §3, §4, §5, §6, §7, §8, §9

[5] = tested on: Serratia Marcescens ATCC 13 880; test: series dilution test in the microtiter system (MIC), Serratia marcescens ATCC 13880; type: cell-based; conditions: 18 to 20 hours at 37° C., liquid medium, read-out: minimum inhibitory concentrations (MIC), Serrat. marcesc. ATCC 13880
Method: as §1, §2, §3, §4, §5, §6, §7, §8, §9

[6] = tested on: Klebsiella pneumoniae ATCC 10 031; test: series dilution test in the microtiter system (MIC), Klebsiella pneumoniae ATCC 10031; type: cell-based; conditions: 18 to 20 hours at 37° C., liquid medium, read-out: minimum inhibitory concentrations (MIC), Klebs.pneum. ATCC 10031
Method: as §1, §2, §3, §4, §5, §6, §7, §8, §9

[7] = tested on: Klebsiella pneumoniae BC 6; test: series dilution test in the microtiter system (MIC), Klebsiella pneumoniae BC 6; type: cell-based; conditions: BC6, 18 to 20 hours at 37° C., liquid medium, read-out: minimum inhibitory concentrations (MIC), Klebs. pneum. BC 6
Method: as §1, §2, §3, §4, §5, §6, §7, §8, §9

[8] = tested on: Proteus mirabilis Hamburgensis; test: series dilution test in the microtiter system (MIC), Proteus mirabilis Hamburgensis; type: cell-based; conditions: 18 to 20 hours at 37° C., liquid medium, read-out: minimum inhibitory concentrations (MIC), Prot. mirabilis Hbg
Method: as §1, §2, §3, §4, §5, §6, §7, §8, §9

Proteus rettgeri BC 7 = test: series dilution test in the microtiter system (MIC), Proteus rettgeri BC 7; type: cell-based; conditions: Providencia rettgeri, BC7; 18 to 20 hours at 37° C., liquid medium; read-out: minimum inhibitory concentrations (MIC), Prot. geri BC
Method: as §1, §2, §3, §4, §5, §6, §7, §8, §9

[9] = tested on: Enterobacter cloacae ATCC 13 047; test: series dilution test in the microtiter system (MIC), Enterobacter cloacae ATCC 13047; type: cell-based; conditions: 18 to 20 hours at 37° C., liquid medium, read-out: minimum inhibitory concentrations (MIC), Eb.cloacae ATCC 13047
Method: as §1, §2, §3, §4, §5, §6, §7, §8, §9

E. coli ATCC 11775 = test: in vivo experimental E. coli infection in mice; set-up: species or system mice (female, NMRI strain); conditions: Escherichia coli, ATCC11775, sc, 168 h; subcutaneous, one treatment 1 hour post infectionem; 50% survival, 7 days observation
Method: (§10) A number of the compounds of the present invention were tested in vivo against experimental infections in mice. E. coli ATCC 11775 and Pseudomonas aeruginosa BC 19 were used as the pathogenic bacteria. An intraperitoneal infection was produced with 0.2 ml of a 5% mucin suspension of the bacteria. This corresponds to about 1.4×10^6 E. coli bacteria and 1.3×10^6 Pseudomonas bacteria per mouse. Female mice of the NMRI strain were divided into groups of 10 animals; two groups were untreated, the other groups were treated subcutaneously with various doses of the penicillins of the present invention, to determine the ED50 (dose at which 50% of the animals survived). For the E. coli infection, one treatment was given*. For the Pseudomonas infection, three treatments were given (1, 3 and 5 hours post-infectionem). *1 hour post infectionem In both cases, the observation period was 7 days.

[10] = tested on: Pseudomonas aeruginosa BC 19; test: in vivo experimental Pseudomonas infection in mice; set-up: species or system mice (female, NMRI strain); conditions: BC19, sc, 168 h, subcutaneous, three treatments 1, 3 and 5 hours post-infectionem, 50% survival, 7 days observation, read-out: ED50, Pseud. Infection
Method: as §10, with “post-infectionem).” for “post-infectionem). *1 hour post infectionem”

SMILES | MIC [1] [µg/mL] | MIC [2] [µg/mL] | MIC [3] [µg/mL] | MIC [4] [µg/mL] | MIC [5] [µg/mL] | MIC [6] [µg/mL] | MIC [7] [µg/mL] | MIC [8] [µg/mL] | MIC (Proteus rettgeri BC 7) [µg/mL] | MIC [9] [µg/mL] | ED50 (E. coli ATCC 11775) [mg/kg] | ED50 [10] [mg/kg]
CC1(C)S[C@@H]2[C@H](NC(=O)C(NC(=O)Nc3cnc(Nc4ccc(S(=O)(=O)N5CCN(C=O)CC5)cc4)nc3O)c3ccc(O)cc3)C(=O)N2[C@H]1C(=O)O (some centres unmarked) [H] | 0.5 (≈ 0.65 µM) | 0.25 (≈ 0.325 µM) | 2 (≈ 2.6 µM) | 1 (≈ 1.3 µM) | 0.25 (≈ 0.325 µM) | 2 (≈ 2.6 µM) | 2 (≈ 2.6 µM) | 0.06 (≈ 0.0779 µM) | 0.5 (≈ 0.65 µM) | 1 (≈ 1.3 µM) |  | 
CC1(C)S[C@@H]2[C@H](NC(=O)C(NC(=O)Nc3cnc(Nc4ccc(S(=O)(=O)NC5=NCCN5)cc4)nc3O)c3ccc(O)cc3)C(=O)N2[C@H]1C(=O)O (some centres unmarked) [B] | 0.5 (≈ 0.675 µM) | 0.25 (≈ 0.337 µM) | 2 (≈ 2.7 µM) | 1 (≈ 1.35 µM) | 0.25 (≈ 0.337 µM) | 2 (≈ 2.7 µM) | 4 (≈ 5.4 µM) | 0.06 (≈ 0.081 µM) | 0.5 (≈ 0.675 µM) | 0.1 (≈ 0.135 µM) | 0.7 | 1.9
CC1(C)S[C@@H]2[C@H](NC(=O)C(NC(=O)Nc3cnc(Nc4ccc(S(=O)(=O)NC5=NCCO5)cc4)nc3O)c3ccc(O)cc3)C(=O)N2[C@H]1C(=O)O (some centres unmarked) [D] | 0.5 (≈ 0.674 µM) | 0.25 (≈ 0.337 µM) | 1 (≈ 1.35 µM) | 1 (≈ 1.35 µM) | 0.25 (≈ 0.337 µM) | 2 (≈ 2.7 µM) | 4 (≈ 5.39 µM) | 0.06 (≈ 0.0809 µM) | 0.25 (≈ 0.337 µM) | 1 (≈ 1.35 µM) | ~2 | 
CC1(C)S[C@@H]2[C@H](NC(=O)C(NC(=O)Nc3cnc(Nc4ccc(S(=O)(=O)NCC(N)=O)cc4)nc3O)c3ccc(O)cc3)C(=O)N2[C@H]1C(=O)O (some centres unmarked) [G] | 0.5 (≈ 0.685 µM) | 0.12 (≈ 0.164 µM) | 1 (≈ 1.37 µM) | 1 (≈ 1.37 µM) | 0.25 (≈ 0.343 µM) | 2 (≈ 2.74 µM) | 2 (≈ 2.74 µM) | 0.06 (≈ 0.0822 µM) | 0.5 (≈ 0.685 µM) | 1 (≈ 1.37 µM) | ~5 | 
CC1(C)S[C@@H]2[C@H](NC(=O)C(NC(=O)Nc3cnc(Nc4ccc(S(=O)(=O)NC5=NCCS5)cc4)nc3O)c3ccc(O)cc3)C(=O)N2[C@H]1C(=O)O (some centres unmarked) [C] | 0.25 (≈ 0.33 µM) | 0.12 (≈ 0.158 µM) | 1 (≈ 1.32 µM) | 2 (≈ 2.64 µM) | 0.25 (≈ 0.33 µM) | 1 (≈ 1.32 µM) | 1 (≈ 1.32 µM) | 0.06 (≈ 0.0792 µM) | 0.25 (≈ 0.33 µM) | 0.5 (≈ 0.66 µM) | ~3 | 17
CC1(C)S[C@@H]2[C@H](NC(=O)C(NC(=O)Nc3cnc(Nc4ccc(S(=O)(=O)NC5=NCCCN5)cc4)nc3O)c3ccc(O)cc3)C(=O)N2[C@H]1C(=O)O (some centres unmarked) [A] | 0.25 (≈ 0.331 µM) | 0.25 (≈ 0.331 µM) | 1 (≈ 1.32 µM) | 1 (≈ 1.32 µM) | 0.5 (≈ 0.662 µM) | 2 (≈ 2.65 µM) | 2 (≈ 2.65 µM) | 0.06 (≈ 0.0795 µM) | 0.5 (≈ 0.662 µM) | 0.5 (≈ 0.662 µM) | 0.6 | 2.1
CC1(C)S[C@@H]2[C@H](NC(=O)[C@H](NC(=O)N3CCNC3=O)c3ccccc3)C(=O)N2[C@H]1C(=O)O [J, azlocillin, reference compound] | 0.5 (≈ 1.08 µM) | 8 (≈ 17.3 µM) | 8 (≈ 17.3 µM) | 8 (≈ 17.3 µM) | 4 (≈ 8.67 µM) | 32 (≈ 69.3 µM) | 32 (≈ 69.3 µM) | 2 (≈ 4.33 µM) | 8 (≈ 17.3 µM) | 32 (≈ 69.3 µM) | > 100 | > 100
CC1(C)S[C@@H]2[C@H](NC(=O)C(NC(=O)Nc3cnc(Nc4ccc(S(=O)(=O)NCCO)cc4)nc3O)c3ccc(O)cc3)C(=O)N2[C@H]1C(=O)O (some centres unmarked) [F] | 0.5 (≈ 0.698 µM) | 0.25 (≈ 0.349 µM) | 2 (≈ 2.79 µM) | 1 (≈ 1.4 µM) | 0.13 (≈ 0.181 µM) | 2 (≈ 2.79 µM) | 4 (≈ 5.58 µM) | 0.06 (≈ 0.0837 µM) | 0.5 (≈ 0.698 µM) | 2 (≈ 2.79 µM) | ~5 | 10 to 20
